Data as given in article PMC9750872, “Ras-mutant cancers are sensitive to small molecule inhibition of V-type ATPases in mice” (Nature biotechnology, 2022).

Key:
MEFs bearing KRASG13D = assay: Macropinocytosis, TMR-dextran uptake; type: cell-based; conditions: Mus musculus; 2 μM 249C 18 h, DMSO = 100%; read-out: inhibition of MP
Method: (§1) Macropinosome visualization was essentially done as previously described. Cells were plated in black, clear bottom CellCarrier-96 Ultra Microplates (PerkinElmer 6055302) and serum-starved for 24 h. The next day, they were treated with 2 μM 249C (1255) for 18 h followed by addition of 70 kDa TMR-Dextran (Invitrogen D1818) and Hoescht for 2 hours at 37 °C prior to 3 × cold PBS washes and fixation in 4% paraformaldehyde for 30 min. Following 3 × cold PBS washes, mounting medium (Vector Laboratories Inc.) was added and images were captured using an Operetta CLS™ fluorescent microscope for High-Content Analysis (PerkinElmer). Image analysis and quantification was performed with a spot segmentation algorithm using the Perkin Elmer Harmony® PhenoLOGIC™ 3.2 software. Briefly, the images were segmented and individual nuclei (DAPI stained) and cell bodies (by digital phase contrast imaging) were identified. The TMR signal was used for the spot segmentation analysis block. […] Data are presented as spots - number of objects per nucleus. For each cell line, 5 DMSO control and 5 249C-treated wells were imaged and a minimum of 3 images were captured per well. Data representing three independent experiments are presented.

MEFs bearing KRASG12V = assay: Macropinocytosis, TMR-dextran uptake; type: cell-based; conditions: Mus musculus; 2 μM 249C 18 h, DMSO = 100%; read-out: inhibition of MP
Method: as §1

MEFs bearing BRAFV600E = assay: Macropinocytosis, TMR-dextran uptake; type: cell-based; conditions: Mus musculus; 2 μM 249C 18 h, DMSO = 100%; read-out: inhibition of MP
Method: as §1

[1] = Plasma concentration in mice; type: in vivo; conditions: female, athymic nude (NU/NU, Charles River strain # 088), mouse, intraperitoneal, 10 mg/kg, after 4 hours, read-out: maximum concentration (Cmax) in blood (or plasma)
Method: 5 × 10^6 A549 cells were subcutaneously injected into the lower left flank of 6–8-week old athymic nude female mice (Charles River strain # 088, homozygous NU/NU). To assess establishment of tumors, mice were examined 5 days post-inoculation and were randomly segregated into two treatment groups [vehicle control, 10 mg/kg 249C IP, n = 7 per group] and were treated twice daily with the drug in NPM or vehicle control (5% weight aqueous solution of carboxymethyl cellulose). Tumor volumes were calculated using the formula (L × W × H)/2 with recorded caliper measurements. Survival curves and statistical analyses were performed using Excel. Animals were maintained on a standard chow diet; 12:12 dark/light cycle and in group housing in hepa-filtered cages. All animal procedures were performed under IACUC approved protocols and guidelines. Animals from both groups were weighed every 3 days. Plasma concentration was measured from blood collected using standard and established protocols.

[2] = Maximum tolerated dose study; type: in vivo
Text: MTD studies were outsourced and performed at a local CRO based on their established protocols.

[3] = target: T1, human H subunit (ATP6V1H) (Homo sapiens, UniProt Q9UI12); assay: Bio-layer interferometry (BLI); type: binding; conditions: biotinylated-249C on streptavidin sensors
T1 construct: GST (cleaved yes); host or cells: Rosetta2(DE3)pLysS (E. coli)
Text: (§2) Figure 4. […] (A) Model of the reversible assembly of V-ATPase. Cytosolic V1 subunits are depicted in blue and membrane Vo subunits in purple. Upon V-ATPase assembly, ATP is hydrolyzed to ADP accompanied by proton (H^+) pumping and luminal acidification (decrease in pH) (Created with BioRender). […] The amount of subunit B2 present in the membrane fraction indicates the amount of assembled V-ATPase. A representative Western blot is presented. […] Cells were mechanically lysed, and a fraction containing FITC-Dextran-loaded lysosomes was isolated by sedimentation centrifugation. Fluorescence was measured over time to assess pH-dependent quenching following addition of 1 mM magnesium-ATP (predetermined). […] Representative of 5 individual experiments with n = 3 for each is presented (mean ± SD) (D) Mammalian V-ATPase activity measured in the absence and presence of 1 μM 249C and 1 μM BafA1. Data shown are mean ± SD; n = 3. Bio-layer inferometry (BLI) of (E) the entire mammalian V-ATPase complex (association protein concentrations: 30, 60, 120, 240 nM) and (F) the individual human H subunit (ATP6V1H) (association protein concentrations: 16,800 and 21,000 nM) against biotinylated-249C loaded onto streptavidin sensor tips. A reference sensor was subtracted from the signal to blank the system. The ForteBio Octet® Software on the BLI system was used to calculate Kd s. […]

[4] = target: T2, entire mammalian V-ATPase complex (Sus scrofa, UniProt Q9TVC1); assay: Bio-layer interferometry (BLI); type: binding, porcine; conditions: biotinylated-249C on streptavidin sensors
T2 construct: the entire V-ATPase complex (800 kDa) was purified as described previously from porcine kidneys; from tissue; host or cells: porcine kidney
Text: as §2

MEFs KRAS G12C = assay: Cell proliferation of Ras-less MEFs expressing human KRAS/BRAF; conditions: Mus musculus
Method: Logarithmically growing cells were plated in antibiotic-free medium supplemented with 2% fetal bovine serum at a density of 5,000 cells per well. The next day, cells were treated in triplicates with increasing doses of in-house small molecule inhibitor drugs and a DMSO vehicle control for 3 days and subsequently assessed for cell viability by measurement of ATP with CellTiter-Glo Luminescent Cell Viability Assay (Promega). Signal intensity was read on a Glomax™ 96 Microplate Luminometer (Promega) with GLOMAX software (version 1.9.3) and percent cell survival was calculated based on the reading of vehicle control cells set as 100% using Excel (2012) and GraphPad Prism (version 6)Each compound was tested a minimum of 2 times with n = 3. All cell proliferation assays (cancer cell lines or MEFs) were done in a similar way.

human primary cells = assay: BioMAP Safety and Toxicology screening profile; type: cell-based; conditions: over 100 biomarker readouts
Method: The BioMAP Toxicity Screening Profile was performed as described previously.

T1 sequence (Q9UI12 whole entry): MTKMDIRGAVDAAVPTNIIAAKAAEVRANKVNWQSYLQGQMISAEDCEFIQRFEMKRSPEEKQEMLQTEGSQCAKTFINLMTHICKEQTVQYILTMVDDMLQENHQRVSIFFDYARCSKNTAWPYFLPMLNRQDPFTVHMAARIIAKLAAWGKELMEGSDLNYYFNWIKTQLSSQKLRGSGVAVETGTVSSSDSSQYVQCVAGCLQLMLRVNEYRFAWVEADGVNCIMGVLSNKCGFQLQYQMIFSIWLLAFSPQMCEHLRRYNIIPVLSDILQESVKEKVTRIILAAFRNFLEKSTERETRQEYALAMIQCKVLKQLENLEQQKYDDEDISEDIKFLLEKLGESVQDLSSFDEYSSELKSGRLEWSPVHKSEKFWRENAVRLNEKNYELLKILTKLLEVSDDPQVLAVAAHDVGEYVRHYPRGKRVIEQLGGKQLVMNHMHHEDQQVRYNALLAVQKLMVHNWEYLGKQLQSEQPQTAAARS
T2 sequence (Q9TVC1 whole entry): as the sequence (Q9UI12 whole entry) above, with A44S, C85S, M100T, R116K, C117R, P124S, P135L, S173A, M309L counted along it
T2 sequence (Q29048 whole entry partner): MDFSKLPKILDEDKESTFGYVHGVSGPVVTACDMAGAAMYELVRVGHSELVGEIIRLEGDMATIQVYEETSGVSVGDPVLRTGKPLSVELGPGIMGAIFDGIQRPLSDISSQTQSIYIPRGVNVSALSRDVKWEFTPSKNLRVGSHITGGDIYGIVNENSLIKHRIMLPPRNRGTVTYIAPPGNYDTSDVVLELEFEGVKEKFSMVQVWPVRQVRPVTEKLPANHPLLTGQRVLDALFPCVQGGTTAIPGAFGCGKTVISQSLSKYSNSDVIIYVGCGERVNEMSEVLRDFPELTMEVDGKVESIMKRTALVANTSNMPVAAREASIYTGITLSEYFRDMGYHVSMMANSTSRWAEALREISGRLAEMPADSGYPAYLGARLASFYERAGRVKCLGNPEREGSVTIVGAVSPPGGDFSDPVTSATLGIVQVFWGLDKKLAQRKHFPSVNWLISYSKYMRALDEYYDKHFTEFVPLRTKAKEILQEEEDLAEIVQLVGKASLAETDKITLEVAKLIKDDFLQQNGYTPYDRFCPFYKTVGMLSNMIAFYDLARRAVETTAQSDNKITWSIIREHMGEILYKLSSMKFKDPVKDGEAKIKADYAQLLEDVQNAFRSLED

CN1CCOC(CNC(=O)C2(C)C(c3ccc(Cl)o3)C(c3ccc(F)cc3F)=NN2c2ccc(F)cc2F)C1 (stereo not shown) [Compound 249C]
inhibition at 2 µM (MEFs bearing KRASG13D): 94%
inhibition at 2 µM (MEFs bearing KRASG12V): 73%
inhibition at 2 µM (MEFs bearing BRAFV600E): 90%
Cmax [1]: 20 µM
body weight ([2]; 150 mg/kg, after 21 days in vivo): no significant difference in body weight
MTD at 21 days ([2]; mouse, in vivo, mice): 150 mg/kg
Kd [3]: 501 nM
Kd [4]: 23 nM
IC50 (MEFs KRAS G12C): 440 nM
toxicity categories / adverse events in BioMAP safety profiling (human primary cells): no adverse events
